Assay results taken from patent US11098055B2, “Ester ACC inhibitors and uses thereof” (Gilead Apollo, LLC, priority 2015, dated 2021).
Converted amounts (≈) assume the structure as drawn. Read-outs that look alike come from different tables or passages of the source.

Columns and labels:
[1] = tested on: Fusarium moniliforme (Fm); assay: Growth inhibition assay of fungal pathogens; assay type: cell-based; settings: Fusarium verticillioides, 48 h, read-out: Concentration at 90% Inhibition Fm
Method: (§1) Compounds of the present invention were evaluated in a growth inhibition assay to determine the ability to control the growth of fungal pathogens, such as Botrtyis cinerea (Bc), Collectotrichum graminicola (Cg), Diplodia maydis (Dm), Fusarium moniliforme (Fm), Fusarium virguhforme (Fv), Phytophthora capsici (Pc), Rhizoctonia solani (Rs), and Septoria tritici (St). Compounds to be tested were dissolved in DMSO at 2.5 mg/ml to produce compound stock solutions (“stocks”). Stocks were diluted with DMSO by a five-fold dilution in a 96-well stock plate, and two sets of final concentrations of 50, 10, and 2 ppm or 2, 0.4, and 0.08 ppm were obtained in vitro. A set of positive controls was also prepared, with various concentrations of Soraphen (2, 0.4, and 0.08 ppm), Metalaxyl (1.1, 0.22, and 0.04 ppm), and Metconazole (2, 0.4, and 0.08 ppm or 0.2, 0.04, and 0.008 ppm) after the five-fold dilutions. Negative controls on each plate included 2% DMSO, water, and a blank (media+2% DMSO). Fungal spores were isolated from previously sub-cultured plates of Botrtyis cinerea (Bc), Collectotrichum graminicola (Cg), Diplodia maydis (Dm), Fusarium moniliforme (Fm), Fusarium virguliforme (Fv), Phytophthora capsici (Pc), and Septoria tritici (St). The isolated spores were diluted to individual concentrations with a 17% V8 liquid media. For Rhizoctonia solani (Rs) and Pythium irregulare, 1.5 mm mycelial plugs were used in place of spores and ¼ Potato Dextrose Broth (PDB) was used for dilution. The spore concentrations and plug sizes were based on growth curves generated at 48 hours for each pathogen. In a second 96-well plate, the spores or mycelial plugs, media, diluted compound solutions, and controls were combined. Once the compound was added, a true final concentration of compound in each well was measured by an OD600 reading, which adjusted for any compound precipitation that might have occurred in the well. Plate readings were repeated at both 24 and 48 hours. The blank negative control was used as a background subtraction. Additional visual ratings were performed at both 24 and 48 hours for checking on precipitation and confirming efficacy. Visual and OD600 ratings of the compounds at 48 hours were compared to the 2% DMSO negative control, and the percent of pathogen growth inhibition was determined based on those values.

Diplodia maydis (Dm) = assay: Growth inhibition assay of fungal pathogens; assay type: cell-based; settings: Stenocarpella maydis, 48 h, read-out: Concentration at 90% Inhibition Dm
Method: as §1

Rhizoctonia solani (Rs) = assay: Growth inhibition assay of fungal pathogens; assay type: cell-based; settings: 48 h, read-out: Concentration at 90% Inhibition Rs
Method: as §1

[2] = tested on: Fusarium virguliforme (Fv); assay: Growth inhibition assay of fungal pathogens; assay type: cell-based; settings: 48 h, read-out: Concentration at 90% Inhibition Fv
Method: as §1

[3] = tested on: Phytophthora capsici (Pc); assay: Growth inhibition assay of fungal pathogens; assay type: cell-based; settings: 48 h, read-out: Concentration at 90% Inhibition Pc
Method: as §1

Septoria tritici (St) = assay: Growth inhibition assay of fungal pathogens; assay type: cell-based; settings: Zymoseptoria tritici, 48 h, read-out: Concentration at 90% Inhibition St
Method: as §1

Botrtyis cinerea (Bc) = assay: Growth inhibition assay of fungal pathogens; assay type: cell-based; settings: 48 h, read-out: Concentration at 90% Inhibition Bc
Method: as §1

[4] = tested on: Collectotrichum graminicola (Cg); assay: Growth inhibition assay of fungal pathogens; assay type: cell-based; settings: 48 h, read-out: Concentration at 90% Inhibition Cg
Method: as §1

[5] = tested on: C. parapsilosis ATCC 22019; assay: Anti-Fungal (Candida) Activity Assay, broth microtiter MIC; assay type: cell-based; settings: Lodderomyces parapsilosis, ATCC22019, 48 h, 3 replicates, MIC read at 48 h
Method: (§2) Compounds of the present invention were evaluated in an Anti-Fungal Activity Assay. An exemplary procedure for the assay, which measures the susceptibility of various Candida species to anti-fungal compounds, follows. Compounds to be tested (including fluconazole and amphotericin B) were dissolved in DMSO to obtain a solution having a concentration of 1 mg/mL. These stock solutions were sterile filtered using a 0.22 um nylon syringe filter, then diluted in sterile water to achieve a final concentration of 128 μg/mL.
(§3) All species were grown from frozen stock by directly plating on to freshly prepared Sabouraud Dextrose agar (BD, Difco) and incubated overnight in ambient air at 35° C. for 24 h. A direct suspension was prepared in RPMI 1640+MOPS (Lonza, Biowhittaker) by taking individual colonies from the overnight cultures using sterile swabs soaked in sterile saline. The concentration of the suspension was determined using pre-determined standard curves. These suspensions were then diluted down to 5×10^3 CFU/mL to achieve a final concentration of 2.5×10^3 CFU/mL once added to the microtiter plate as per CLSI guidelines (M27-A3, Vol. 28 No. 14).
(§4) Broth microtiter MIC challenge plates were prepared following CLSI guidelines (M27-A3, Vol. 28 No. 14). The original CLSI guidelines focused on reading Candida MICs after 48 h of incubation. As reading after only 24 h offers a clear advantage of patient care, QC limits are being established for all drugs at 24 h. That being said there are no known interpretive breakpoints for amphotericin B at 24 h and the current fluconazole interpretive breakpoints are based on a 48 h reading. The MIC for the test compounds were recorded at 48 h. All MIC determinations were achieved by visually comparing the growth found in the antibiotic challenged wells to that of the growth control.

C. albicans ATCC 90028 = assay: as above; assay type: cell-based; settings: ATCC90028, 48 h, 3 replicates, MIC read at 48 h
Method: as §2, §3, §4

C. krusei ATCC 6258 = assay: as above; assay type: cell-based, Candida krusei; settings: Pichia kudriavzevii, ATCC6258, 48 h, 3 replicates, MIC read at 48 h
Method: as §2, §3, §4

| Compound | IC90 ([1]; Table 4a) [µg/mL] | IC90 ([1]; Table 4b) [µg/mL] | IC90 (Diplodia maydis (Dm); Table 4a) [µg/mL] | IC90 (Diplodia maydis (Dm); Table 4b) [µg/mL] | IC90 (Rhizoctonia solani (Rs); Table 4a) [µg/mL] | IC90 (Rhizoctonia solani (Rs); Table 4b) [µg/mL] | IC90 ([2]; Table 4a) [µg/mL] | IC90 ([2]; Table 4b) [µg/mL] | IC90 ([3]; Table 4a) [µg/mL] | IC90 ([3]; Table 4b) [µg/mL] | IC90 (Septoria tritici (St); Table 4a) [µg/mL] | IC90 (Septoria tritici (St); Table 4b) [µg/mL] | IC90 (Botrtyis cinerea (Bc); Table 4a) [µg/mL] | IC90 (Botrtyis cinerea (Bc); Table 4b) [µg/mL] | IC90 ([4]; Table 4a) [µg/mL] | IC90 ([4]; Table 4b) [µg/mL] | MIC ([5]; Table 3a) [µg/mL] | MIC ([5]; Table 3b (additional results)) [µg/mL] | MIC (C. albicans ATCC 90028; Table 3a) [µg/mL] | MIC (C. albicans ATCC 90028; Table 3b (additional results)) [µg/mL] | also measured |
| --- | --- | --- | --- | --- | --- | --- | --- | --- | --- | --- | --- | --- | --- | --- | --- | --- | --- | --- | --- | --- | --- |
| CCOC(=O)c1sc2c(c1C)c(=O)n(C(C)(C)C(=O)N1CCCC1)c(=O)n2C[C@H](OC(C)C)c1ccccc1OC [Compound I-7, (R)-ethyl 1-(2-isopropoxy-2-(2-methoxyphenyl)ethyl)-5-methyl-3-(2-methyl-1-oxo-1-(pyrrolidin-1-yl)propan-2-yl)-2,4-dioxo-1,2,3,4-tetrahydrothieno[2,3-d]pyrimidine-6-carboxylate] | 0.08 (≈ 0.137 µM) | 0.08 (≈ 0.137 µM) | 0.4 (≈ 0.683 µM) | 0.4 (≈ 0.683 µM) | 0.08 (≈ 0.137 µM) | 0.08 (≈ 0.137 µM) | 0.4 (≈ 0.683 µM) | 0.4 (≈ 0.683 µM) | ≥ 50 | ≥ 50 | 10 (≈ 17.1 µM) | 2 (≈ 3.41 µM) | 0.4 (≈ 0.683 µM) | 0.4 (≈ 0.683 µM) | 0.4 (≈ 0.683 µM) | 0.4 (≈ 0.683 µM) | 2.1 to 4 (≈ 3.59 to 6.83 µM) | 2.1 to 4 (≈ 3.59 to 6.83 µM) | 2.1 to 4 (≈ 3.59 to 6.83 µM) | 2.1 to 4 (≈ 3.59 to 6.83 µM) | MIC (C. krusei ATCC 6258; Table 3a): 2.1 to 4 µg/mL (≈ 3.59 to 6.83 µM); MIC (C. krusei ATCC 6258; Table 3b (additional results)): 2.1 to 4 µg/mL (≈ 3.59 to 6.83 µM) |
| CCOC(=O)c1sc2c(c1C)c(=O)n(C(C)(C)C(=O)NC(C)C)c(=O)n2C[C@H](OC1CCOCC1)c1ccccc1OC [Compound I-8, (R)-ethyl 3-(1-(isopropylamino)-2-methyl-1-oxopropan-2-yl)-1-(2-(2-methoxyphenyl)-2-((tetrahydro-2H-pyran-4-yl)oxy)ethyl)-5-methyl-2,4-dioxo-1,2,3,4-tetrahydrothieno[2,3-d]pyrimidine-6-carboxylate] | 0.08 (≈ 0.13 µM) | 0.08 (≈ 0.13 µM) | 2 (≈ 3.25 µM) | 2 (≈ 3.25 µM) | ≥ 50 | 10 (≈ 16.2 µM) | 2 (≈ 3.25 µM) | 2 (≈ 3.25 µM) | ≥ 50 | ≥ 50 | ≥ 50 | ≥ 50 | 0.4 (≈ 0.65 µM) | 0.4 (≈ 0.65 µM) | 2 (≈ 3.25 µM) | 2 (≈ 3.25 µM) | 1.1 to 2 (≈ 1.79 to 3.25 µM) | 2.1 to 4 (≈ 3.41 to 6.5 µM) | 1.1 to 2 (≈ 1.79 to 3.25 µM) | 1.1 to 2 (≈ 1.79 to 3.25 µM) | MIC (C. krusei ATCC 6258; Table 3a): 0.25 to 1 µg/mL (≈ 0.406 to 1.62 µM); MIC (C. krusei ATCC 6258; Table 3b (additional results)): 2.1 to 4 µg/mL (≈ 3.41 to 6.5 µM) |
| CCOC(=O)c1sc2c(c1C)c(=O)n(C(C)(C)C(=O)NC(C)C)c(=O)n2C[C@H](OC(C)C)c1ccccc1OC [Compound I-9, (R)-ethyl 1-(2-isopropoxy-2-(2-methoxyphenyl)ethyl)-3-(1-(isopropylamino)-2-methyl-1-oxopropan-2-yl)-5-methyl-2,4-dioxo-1,2,3,4-tetrahydrothieno[2,3-d]pyrimidine-6-carboxylate] | 0.08 (≈ 0.139 µM) | 0.08 (≈ 0.139 µM) | 0.4 (≈ 0.697 µM) | 0.4 (≈ 0.697 µM) | ≥ 50 | 10 (≈ 17.4 µM) | 0.4 (≈ 0.697 µM) | 0.4 (≈ 0.697 µM) | ≥ 50 | ≥ 50 | ≥ 50 | ≥ 50 | 0.4 (≈ 0.697 µM) | 0.4 (≈ 0.697 µM) | 2 (≈ 3.49 µM) | 2 (≈ 3.49 µM) | 2.1 to 4 (≈ 3.66 to 6.97 µM) | 2.1 to 4 (≈ 3.66 to 6.97 µM) | 1.1 to 2 (≈ 1.92 to 3.49 µM) | 1.1 to 2 (≈ 1.92 to 3.49 µM) | MIC (C. krusei ATCC 6258; Table 3a): 2.1 to 4 µg/mL (≈ 3.66 to 6.97 µM); MIC (C. krusei ATCC 6258; Table 3b (additional results)): 2.1 to 4 µg/mL (≈ 3.66 to 6.97 µM) |
| CCOC(=O)c1sc2c(c1C)c(=O)n(C(C)(C)C(N)=O)c(=O)n2C[C@H](OCCOC)c1cc(F)ccc1OC [Compound I-10, (R)-ethyl 3-(1-amino-2-methyl-1-oxopropan-2-yl)-1-(2-(5-fluoro-2-methoxyphenyl)-2-(2-methoxyethoxy)ethyl)-5-methyl-2,4-dioxo-1,2,3,4-tetrahydrothieno[2,3-d]pyrimidine-6-carboxylate] | ≥ 50 | 10 (≈ 17.7 µM) | ≥ 50 | ≥ 50 | ≥ 50 | ≥ 50 | ≥ 50 | ≥ 50 | ≥ 50 | ≥ 50 | ≥ 50 | ≥ 50 | ≥ 50 | ≥ 50 | ≥ 50 | ≥ 50 | > 4.1 | 2.1 to 4 (≈ 3.71 to 7.07 µM) | > 4.1 | 2.1 to 4 (≈ 3.71 to 7.07 µM) | MIC (C. krusei ATCC 6258; Table 3a): > 4.1 µg/mL; MIC (C. krusei ATCC 6258; Table 3b (additional results)): 2.1 to 4 µg/mL (≈ 3.71 to 7.07 µM) |
| CCOC(=O)c1sc2c(c1C)c(=O)n(C(C)(C)C(=O)NC(C)C)c(=O)n2C[C@H](OCCOC)c1cc(F)ccc1OC [Compound I-11, (R)-ethyl 1-(2-(5-fluoro-2-methoxyphenyl)-2-(2-methoxy-ethoxy)ethyl)-3-(1-(isopropylamino)-2-methyl-1-oxopropan-2-yl)-5-methyl-2,4-dioxo-1,2,3,4-tetrahydrothieno[2,3-d]pyrimidine-6-carboxylate] | 0.08 (≈ 0.132 µM) | 0.08 (≈ 0.132 µM) | 2 (≈ 3.29 µM) | 2 (≈ 3.29 µM) | ≥ 50 | 10 (≈ 16.5 µM) | 0.4 (≈ 0.658 µM) | 0.4 (≈ 0.658 µM) | ≥ 50 | ≥ 50 | ≥ 50 | ≥ 50 | 2 (≈ 3.29 µM) | 2 (≈ 3.29 µM) | 2 (≈ 3.29 µM) | 2 (≈ 3.29 µM) | 2.1 to 4 (≈ 3.46 to 6.58 µM) | 1.1 to 2 (≈ 1.81 to 3.29 µM) | 2.1 to 4 (≈ 3.46 to 6.58 µM) | 2.1 to 4 (≈ 3.46 to 6.58 µM) | MIC (C. krusei ATCC 6258; Table 3a): 2.1 to 4 µg/mL (≈ 3.46 to 6.58 µM); MIC (C. krusei ATCC 6258; Table 3b (additional results)): 2.1 to 4 µg/mL (≈ 3.46 to 6.58 µM) |
